According to patent US12600696B2 (XENIOPRO GMBH, priority 2017, dated 2026):

Assays:
Assay type in all cases: cell-based
[1] = test system: HL-60 cells (human acute myeloid leukemia cells); test: alamarBlue proliferation assay with HL-60 cells; conditions: 120 h, 5 days, relative to DMSO baseline level of 1.0, read-out: AVEw, weighted arithmetic mean of normalized fluorescence intensity values (Activity Range), HL-60 proliferation
Outline: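 HL-60 cells (1000/well, RPMI 1640 + 10% FBS) exposed to compound in 0.1% DMSO for 5 days, then alamarBlue fluorescence read (ex 560/em 590 nm). Signals normalized to six DMSO wells per plate (baseline 1.0); outliers removed by Peirce/Chauvenet; weighted mean with combined SD; inhibitor criterion judged at 20 μM reference concentration.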

[2] = test system: Notch signaling (hNotch1ΔE, human Notch1 receptor) in HeLa cells; test: Notch reporter assay (luciferase luminescence readout in transfected HeLa cells); conditions: Homo sapiens, 20 hours, relative to DMSO baseline level of 1.0, read-out: AVEw, weighted arithmetic mean of double-normalized Notch-reporter luciferase luminescence values (Activity Range)
Outline: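 HeLa cells were transiently transfected for 24 h with membrane-tethered constitutively active hNotch1ΔE, a CSL-promoter Firefly luciferase reporter and constitutive SV40-Renilla luciferase. Compounds were then applied at 10 μM (0.1% DMSO) for 20 h. Firefly/Renilla dual-luciferase ratios were normalized to DMSO control (baseline 1.0), outliers were excluded, and replicate values were averaged across ≥3 independent experiments.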

[3] = test system: HPEKp cells (human epidermal keratinocyte progenitors, pooled); test: alamarBlue proliferation assay with HPEKp cells; conditions: 120 h, relative to DMSO basis level 1.0, read-out: weighted arithmetic mean (AVEw) of normalized fluorescence intensity, activity range
Protocol: (§1) The antiproliferative activities of compounds falling under formula I, formula II, formula III, formula IV and formula V were investigated on cells or cell lines originating from a disorder of the myeloid cell compartment, the neuroendocrine system, the cervix, and the mucosal epithelium, as well as from the skin epithelium. To this end, HL-60 cells, TT cells, HeLa cells, CAL-27 cells and human primary epidermal keratinocytes (HPEK) were seeded into 96-well plates suitable for fluorescence assays (CORNING #3598) at following initial cell numbers: 1000 cells per well for HL-60; 9000 cells per well for TT; 2000 cells per well for HeLa, 2000 cells per well for CAL-27, 2000 cells per well for HPEK. The cells were treated with compounds at indicated final concentrations (diluted from the 1000× stock-solutions in DMSO to a final DMSO concentration of 0.1% v/v) or with the empty carrier DMSO at 0.1% v/v as control for 5 days. At day 5 after starting the treatments the cells were subjected to the alamarBlue® Proliferation Assay (Bio-Rad Serotec GmbH, BUF012B) according to the protocol of the manufacturer. The readout was taken with a multi-well plate-reader in the fluorescence mode with applying a filter for excitation at 560 nm (band width 10 nm) and for emission at 590 nm (band width 10 nm). Resveratrol (RES) treatment was included as control for growth inhibition.
(§2) The assays were performed in duplicate or more replicates of independent single experiments each containing a six-fold replicate for every condition. For every individual plate, the measured fluorescence intensity values of the conditions with compound treatment were normalized against the corresponding equally weighted arithmetic mean of the fluorescence intensity values of the six DMSO treated control wells in order to obtain the relative values to a baseline level of 1.0. The statistical calculations were performed in analogy to the luciferase assay as described above. To this end, two independent outlier analyses were performed according to the methods by Peirce and Chauvenet (Ross, Journal of Engineering Technology 2003, 1-12). Outliers confirmed by at least one of the methods were excluded from the calculations but not more than one value out of six per compound within a single experiment. The weighted arithmetic mean AVEw for each compound was calculated from the normalized values over all independent replicates of the single experiments comprising the six replicates each. The corresponding standard deviation for the weighted arithmetic mean was calculated according to the method described by Bronstein et al. (Bronstein, Semendjajew, Musiol, Mühlig, Taschenbuch der Mathematik, 5th edition 2001 (German), publisher: Verlag Harri Deutsch, Frankfurt am Main and Thun) and was combined with the Gauß′ error propagation associated with the performed calculation for the normalization. The resulting standard deviation is herein referred to as “combined standard deviation”.
HPEKp cells were cultivated according to the protocol of the provider in CnT-Prime epithelial culture medium (CELLnTEC, #CnT-PR, a fully defined, low calcium formulation, completely free of animal or human-derived components) without addition of further components.
(§3) A compound is considered as a growth inhibitor of HPEKp cells, if—at a reference concentration of 10 μM—the weighted arithmetic mean of the normalized fluorescence intensity values after addition of the corresponding combined standard deviation amounts to 0.9 or lower, in particular to 0.8 or lower, 0.7 or lower, 0.6 or lower, 0.4 or lower, and 0.2 or lower, relative to the overall basis level of 1.0. The overall basis level was calculated as the weighted arithmetic mean of all normalized values from the DMSO control measurements in analogy to the calculations performed for the test-compounds. The corresponding combined standard deviation for the DMSO values amounts to less than 1·10^−2.

[4] = test system: TT cells (human medullary thyroid carcinoma cells); test: alamarBlue proliferation assay with TT cells; conditions: Homo sapiens, 120 h, 40 μM, relative to DMSO basis level 1.0, read-out: weighted arithmetic mean (AVEw) of normalized fluorescence intensity, activity range
Protocol: as §1, §2
TT cells were cultivated according to the protocol of the provider in F-12K medium (Fisherscientific, #11580556, or ATCC, #ATCC-30-2004) containing 10% fetal bovine serum (Fisherscientific, #15517589).
as §3, with “of TT” for “of HPEKp”, “of 40” for “of 10”

[5] = test system: CAL-27 cells (human tongue squamous cell carcinoma cells); test: alamarBlue proliferation assay with CAL-27 cells; conditions: Homo sapiens, 120 h; for activity at 20 µM: 5 days, relative to DMSO baseline level of 1.0, read-out: AVEw, weighted arithmetic mean of normalized fluorescence intensity values (Activity Range), CAL-27 proliferation; for activity at 40 µM: relative to DMSO basis level 1.0, read-out: weighted arithmetic mean (AVEw) of normalized fluorescence intensity, activity range
Protocol: as §1, §2
CAL-27 cells were cultivated according to the protocol of the provider (but at 5% instead of 10% CO2) in DMEM medium (Fisherscientific, #11584456) containing 10% fetal bovine serum (Fisherscientific, #15517589).
as §3, with “of CAL-27” for “of HPEKp”, “of 20” for “of 10”

SMILES | activity at 20 µM [1] | fold induction at 10 µM [2] | activity at 10 µM [3] | activity at 40 µM [4] | activity at 20 µM [5] | activity at 40 µM [5]
CCC(C)(C)c1ccc(Oc2ccc(C(=O)OC)cc2F)cc1 [Compound 374, methyl 3-fluoro-4-(4-(tert-pentyl)phenoxy)benzoate] | 80 to 90% | 1.1 to 1.2 | 80 to 90% |  |  | 
CN(C)C(=O)c1ccc(Oc2ccc(C3CC4CCC3CC4)cc2)cc1 (stereo not shown) [Compound 237, 4-(4-((1s,4s)-bicyclo[2.2.2]octan-2-yl)phenoxy)-N,N-dimethylbenzamide] | 20 to 40% |  |  | 40 to 60% | 40 to 60% | 20 to 40%
CNC(=O)c1ccc(Oc2ccc(C3C[C@@H]4CC[C@H]3C4)cc2)cc1 (stereo partly drawn) [Compound 210, 4-(4-((1S,4R)-bicyclo[2.2.1]heptan-2-yl)phenoxy)-N-methylbenzamide] | 20 to 40% |  |  | 60 to 70% | 70 to 80% | 0 to 20%
CNC(=O)c1ccc(Oc2ccc(C3CCCCC3)cc2)nc1 [Compound 309, 6-(4-cyclohexylphenoxy)-N-methylnicotinamide] |  |  |  | 80 to 90% |  | 
CNC(=O)c1ccc(Oc2ccc(C3(C(F)(F)F)CC3)cc2Cl)nc1 [Compound 819] | 80 to 90% |  | 70 to 80% |  |  | 
O=C(NO)c1ccc(Oc2ccc(C3(C(F)(F)F)CC3)cc2)c(F)c1 [Compound 768, 3-fluoro-N-hydroxy-4-(4-(1-(trifluoromethyl)cyclopropyl)phenoxy)benzamide] | 0 to 20% |  |  | 0 to 20% | 20 to 40% | 20 to 40%
COC(=O)c1ccc(Oc2ccc(C34CC5CC(CC(C5)C3)C4)cc2)c(F)c1 [Compound 389, methyl 4-(4-((3r,5r,7r)-adamantan-1-yl)phenoxy)-3-fluorobenzoate] | 40 to 60% |  | 20 to 40% |  |  | 
O=C(O)c1cnc(Oc2ccc(C34CC5CC(CC(C5)C3)C4)cc2)c(F)c1 [Compound 440, 6-(4-((3r,5r,7r)-adamantan-1-yl)phenoxy)-5-fluoronicotinic acid] | 70 to 80% |  | 20 to 40% |  |  | 
O=C(O)c1ccc(Oc2ccc(C3C[C@@H]4CC[C@H]3C4)cc2)nc1 (stereo partly drawn) [Compound 086, 6-(4-((1S,4R)-bicyclo[2.2.1]heptan-2-yl)phenoxy)nicotinic acid] |  | 1.1 to 1.2 | 60 to 70% |  |  | 
O=C(O)c1ccc(Oc2ccc(C3(C(F)(F)C(F)(F)F)CC3)cc2)nc1 [Compound 731] | 80 to 90% |  | 80 to 90% |  |  | 
CCOC(=O)c1ccc(Oc2ccc(C3(C(F)(F)F)CC3)cc2)cc1 [Compound 721, ethyl 4-(4-(1-(trifluoromethyl)cyclopropyl)phenoxy)benzoate] | 40 to 60% | 1.1 to 1.2 | 70 to 80% |  |  | 
CCOC(=O)c1ccc(Oc2ccc(C3(C(F)(F)C(F)(F)F)CC3)cc2)cc1 [Compound 722] | 40 to 60% |  | 40 to 60% |  |  | 70 to 80%
CCOC(=O)c1ccc(Oc2ccc(C3(C(F)(F)F)CC3)cc2Cl)cc1 [Compound 729, Ethyl 4-(2-chloro-4-(1-(trifluoromethyl)cyclopropyl)phenoxy)-benzoate] | 40 to 60% |  |  | 20 to 40% |  | 20 to 40%
NC(=O)c1ccc(Oc2ccc(C34CC5CC(CC(C5)C3)C4)cc2)cc1 [Compound 161, 4-(4-((3r,5r,7r)-adamantan-1-yl)phenoxy)benzamide] | 20 to 40% |  |  | 40 to 60% |  | 20 to 40%
CN(C)C(=O)c1ccc(Oc2ccc(C3(C(F)(F)F)CC3)cc2Cl)nc1 [Compound 828, 6-(2-chloro-4-(1-(trifluoromethyl)cyclopropyl)phenoxy)-N,N-dimethylnicotinamide] | 60 to 70% |  | 70 to 80% |  |  | 
O=C(NO)c1ccc(Oc2ccc(C3(C(F)(F)F)CC3)cc2Cl)nc1 [Compound 810, 6-(2-chloro-4-(1-(trifluoromethyl)cyclopropyl)phenoxy)-N-hydroxynicotinamide] | 0 to 20% |  | 0 to 20% |  | 0 to 20% | 
O=C(NO)c1ccc(Oc2ccc(C3CC4CCC3CC4)cc2)cc1 (stereo not shown) [Compound 185, 4-(4-((1s,4s)-bicyclo[2.2.2]octan-2-yl)phenoxy)-N-hydroxybenzamide] | 0 to 20% |  | 0 to 20% |  | 0 to 20% | 
CCOC(=O)c1ccc(Oc2ccc(C3(C(F)(F)F)CC3)cc2)nc1 [Compound 748, ethyl 6-(4-(1-(trifluoromethyl)cyclopropyl)phenoxy)nicotinate] |  |  |  | 70 to 80% |  | 
CNC(=O)c1ccc(Oc2ccc(C3CC4CCC3CC4)cc2)nc1 (stereo not shown) [Compound 312, 6-(4-((1s,4s)-bicyclo[2.2.2]octan-2-yl)phenoxy)-N-methylnicotinamide] |  |  | 70 to 80% |  |  | 
CCC(C)(C)c1ccc(Oc2ccc(C(=O)N(C)C)cn2)cc1 [Compound 323, N,N-dimethyl-6-(4-(tert-pentyl)phenoxy)nicotinamide] | 40 to 60% | 1.1 to 1.2 | 70 to 80% |  |  | 
CCCCc1ccc(Oc2ccc(C(=O)NO)cc2)cc1 [Compound 167, 4-(4-butylphenoxy)-N-hydroxybenzamide] | 40 to 60% |  |  | 20 to 40% | 60 to 70% | 0 to 20%
